US9346761B2, “Arginine methyltransferase inhibitors and uses thereof” (Epizyme, Inc., priority 2013, dated 2016)

Key:
Full-length human PRMT8 = biological target: T1, Full-length human PRMT8 (Homo sapiens, UniProt Q9NR22); test: PRMT8 biochemical assay (3H-SAM Flashplate, peptide substrate)
T1 construct: Full-length human PRMT8 (NM_019854.4) isoform 1 transcript clone; made in house
Description: General Materials. S-adenosylmethionine (SAM), S-adenosylhomocysteine (SAH), bicine, Tween20, dimethylsulfoxide (DMSO), bovine skin gelatin (BSG), isopropyl-β-D-thiogalactopyranoside (IPTG), and Tris(2-carboxyethyl)phosphine hydrochloride solution (TCEP) were purchased from Sigma-Aldrich at the highest level of purity possible. ^3H-SAM was purchase from American Radiolabeled Chemicals with a specific activity of 80 Ci/mmol. 384-well streptavidin Flashplates were purchased from PerkinElmer.
Substrates. Peptide representative of human histone H4 residues 31-45 was synthesized with an N-terminal linker-affinity tag motif and a C-terminal amide cap by 21st Century Biochemicals.
Protein Expression. E. coli (BL21(DE3) Gold, Stratagene) made competent by the CaCl2 method were transformed with the PRMT8 construct and ampicillin selection. Protein over-expression was accomplished by growing the PRMT8 expressing E. coli clone and inducing expression with 0.3 mM IPTG at 16° C. The culture was grown for 12 hours, harvested by centrifugation, and stored at −80° C. for purification.
Protein Purification. […] GST-tagged PRMT8 was eluted with 50 mM Tris, 2 mM glutathione, pH 7.8. Pooled fractions were cleaved by thrombin (10 U) and dialysed in buffer A. GST was removed by reloading the cleaved protein sample onto glutathione sepharose column and PRMT8 was collected in the flow-through fractions. PRMT8 was purified further by ceramic hydroxyapatite chromatography. The column was washed with 50 mM phosphate buffer, 100 mM NaCl, 5% glycerol, 5 mM β-mercaptoethanol, pH 7.8 and PRMT8 was eluted by 100 mM phosphate in the same buffer. Protein was concentrated and buffer was exchanged to 50 mM Tris, 300 mM NaCl, 10% glycerol, 5 mM β-mercaptoethanol, pH 7.8 by ultrafiltration.
General Procedure for PRMT8 Enzyme Assays on Peptide Substrates. The assays were all performed in a buffer consisting of 20 mM Bicine (pH=7.6), 1 mM TCEP, 0.005% BSG, and 0.002% Tween 20, prepared on the day of use. […] DMSO (1 ul) was added to Columns 11, 12, 23, 24, rows A-H for the maximum signal control and 1 ul of SAH, a known product and inhibitor of PRMT8, was added to columns 11, 12, 23, 24, rows I-P for the minimum signal control. A cocktail (40 ul) containing the PRMT8 enzyme was added by Multidrop Combi (Thermo-Fisher). The compounds were allowed to incubate with PRMT8 for 30 min at room temperature, then a cocktail (10 ul) containing ^3H-SAM and peptide was added to initiate the reaction (final volume=51 ul). […] The assays were stopped by the addition of non-radiolabeled SAM (10 ul) to a final concentration of 400 uM, which dilutes the ^3H-SAM to a level where its incorporation into the peptide substrate is no longer detectable. 50 ul of the reaction in the 384-well polypropylene plate was then transferred to a 384-well Flashplate and the biotinylated peptides were allowed to bind to the streptavidin surface for at least 1 hour before being washed once with 0.1% Tween20 in a Biotek ELx405 plate washer. The plates were then read in a PerkinElmer TopCount plate reader to measure the quantity of ^3H-labeled peptide bound to the Flashplate surface, measured as disintegrations per minute (dpm) or alternatively, referred to as counts per minute (cpm).
Where dpm=disintegrations per minute, cmpd=signal in assay well, and min and max are the respective minimum and maximum signal controls.
Where top and bottom are the normally allowed to float, but may be fixed at 100 or 0 respectively in a 3-parameter fit. The Hill Coefficient normally allowed to float but may also be fixed at 1 in a 3-parameter fit. Y is the % inhibition and X is the compound concentration.

Full-length human PRMT6 = biological target: T2, Full-length human PRMT6 (Homo sapiens, UniProt Q96LA8); test: PRMT6 biochemical assay (3H-SAM Flashplate, peptide substrate)
T2 construct: Flag-PRMT6-His was eluted with 200 ug/ml FLAG peptide in the same buffer; made in house; host or cells: HEK 293F cells (BacMam virus, pFastBacMam)
T2 sequence (Q96LA8 with tags, fused parts or gaps): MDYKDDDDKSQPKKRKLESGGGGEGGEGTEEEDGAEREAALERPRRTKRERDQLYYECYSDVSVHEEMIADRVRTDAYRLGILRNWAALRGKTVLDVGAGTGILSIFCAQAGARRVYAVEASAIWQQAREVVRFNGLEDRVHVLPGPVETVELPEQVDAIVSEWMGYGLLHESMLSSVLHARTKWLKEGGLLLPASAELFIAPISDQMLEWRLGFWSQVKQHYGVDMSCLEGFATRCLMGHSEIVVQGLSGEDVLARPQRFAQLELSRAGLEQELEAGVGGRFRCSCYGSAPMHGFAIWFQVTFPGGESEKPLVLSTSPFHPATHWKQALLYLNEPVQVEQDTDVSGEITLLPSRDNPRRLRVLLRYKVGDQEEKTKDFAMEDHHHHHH
How it was run: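 Read-out is 3H-methylated histone H4 (36-50) peptide bound to streptavidin Flashplates after a cold-SAM stop. Baculovirus-expressed Flag-PRMT6-His met compound for 30 min at room temperature before SAM and peptide; Bicine pH 7.6 buffer. IC50 fitted to % inhibition normalized to SAH (min) and DMSO (max).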

T1 sequence (Q9NR22 whole entry, canonical isoform): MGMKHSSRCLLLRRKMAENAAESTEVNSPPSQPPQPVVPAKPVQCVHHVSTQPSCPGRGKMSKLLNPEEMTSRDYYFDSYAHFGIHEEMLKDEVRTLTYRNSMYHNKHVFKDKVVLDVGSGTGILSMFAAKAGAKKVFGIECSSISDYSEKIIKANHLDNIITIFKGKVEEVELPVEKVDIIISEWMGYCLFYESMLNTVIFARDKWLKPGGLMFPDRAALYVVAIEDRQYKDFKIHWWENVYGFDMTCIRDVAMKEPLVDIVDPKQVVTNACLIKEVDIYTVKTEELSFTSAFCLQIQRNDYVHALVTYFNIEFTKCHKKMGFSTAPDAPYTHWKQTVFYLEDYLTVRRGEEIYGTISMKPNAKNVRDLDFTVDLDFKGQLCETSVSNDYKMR

SMILES	IC50 (Full-length human PRMT8)	IC50 (Full-length human PRMT6)
COCCn1cc(CN(C)CCN)c(-c2ccc(F)cc2)n1 [Compound 5]	3010 to 10000 nM	101 to 1000 nM
COCCn1ncc(CN(C)CCN)c1-c1ccc(F)cc1 [Compound 6]		101 to 1000 nM
CCn1ncc(CN(C)CCNC)c1-c1ccc(F)cc1 [Compound 7]	3010 to 10000 nM	< 100 nM
CCn1cc(CN(C)CCNC)c(-c2ccc(F)cc2)n1 [Compound 8]	3010 to 10000 nM	101 to 1000 nM
CN(CCN)Cc1c[nH]nc1-c1ccc(Cl)cc1 [Compound 95]	101 to 1000 nM	< 100 nM
CN(CCN)Cc1c[nH]nc1-c1ccc(OCC(F)(F)F)cc1 [Compound 96]	101 to 1000 nM	< 100 nM
CC(C)Oc1ccc(-c2n[nH]cc2CN(C)CCN)cc1F [Compound 97]	< 100 nM	< 100 nM
CN(CCN)Cc1c[nH]nc1-c1ccc(C2CCOCC2)cc1 [Compound 98]	101 to 1000 nM	< 100 nM
CN(CCN)Cc1c[nH]nc1-c1ccc(F)cc1F [Compound 99]	1010 to 3000 nM	< 100 nM
CN(CCN)Cc1n[nH]cc1-c1ccc(C#N)cc1 [Compound 100]	101 to 1000 nM	< 100 nM
CC(C)c1ccc(-c2c[nH]nc2CN(C)CCN)cc1 [Compound 101]	101 to 1000 nM	101 to 1000 nM
CN(CCN)Cc1n[nH]cc1-c1ccc(Cl)cc1 [Compound 102]	101 to 1000 nM	< 100 nM
CN(CCN)Cc1n[nH]cc1-c1ccc(C(F)(F)F)cc1 [Compound 103]	101 to 1000 nM	< 100 nM
CN(CCN)Cc1n[nH]cc1-c1ccc(C2CC2)cc1 [Compound 104]	101 to 1000 nM	< 100 nM
CN(CCN)Cc1n[nH]cc1-c1ccc(OC(F)(F)F)cc1 [Compound 105]	101 to 1000 nM	< 100 nM
CN(CCN)Cc1c[nH]nc1-c1cc(F)ccc1Cl [Compound 106]	3010 to 10000 nM	< 100 nM
COc1ccc(-c2n[nH]cc2CN(C)CCN)c(F)c1 [Compound 107]	101 to 1000 nM	< 100 nM
Cc1ccc(-c2n[nH]cc2CN(C)CCN)c(F)c1 [Compound 108]	1010 to 3000 nM	< 100 nM
COc1ccccc1-c1n[nH]cc1CN(C)CCN [Compound 109]	1010 to 3000 nM	101 to 1000 nM
Cc1cc(C#N)ccc1-c1n[nH]cc1CN(C)CCN [Compound 110]	101 to 1000 nM	< 100 nM
CN(CCN)Cc1c[nH]nc1-c1cc(F)cc(F)c1 [Compound 111]	101 to 1000 nM	< 100 nM
CC(=O)c1cccc(-c2n[nH]cc2CN(C)CCN)c1 [Compound 112]	101 to 1000 nM	< 100 nM
CN(CCN)Cc1cnn(CC(O)CO)c1-c1ccc(F)cc1 (stereo not drawn) [Compound 113]	3010 to 10000 nM	101 to 1000 nM
CN(CCN)Cc1c[nH]nc1-c1ccc(OC2CC2)cc1 [Compound 114]	< 100 nM	< 100 nM
CC(O)c1ccc(-c2n[nH]cc2CN(C)CCN)cc1 (stereo not drawn) [Compound 115]	1010 to 3000 nM	< 100 nM

SMILES	IC50 (Full-length human PRMT8)	IC50 (Full-length human PRMT6)
CN(CCN)Cc1c[nH]nc1-c1ccc(C2CC2)cc1 [Compound 116]	101 to 1000 nM	< 100 nM
CN(CCN)Cc1c[nH]nc1-c1ccc(C(F)(F)F)c(Cl)c1 [Compound 117]	< 100 nM	< 100 nM
CN(CCN)Cc1c[nH]nc1-c1ccc(Cl)c(F)c1 [Compound 118]	101 to 1000 nM	< 100 nM
CN(CCN)Cc1n[nH]cc1-c1ccc(OC2CC2)cc1 [Compound 119]	101 to 1000 nM	< 100 nM
CN(CCN)Cc1c[nH]nc1-c1cc(F)cc(Cl)c1 [Compound 121]	101 to 1000 nM	< 100 nM
CN(CCN)Cc1c[nH]nc1-c1cccc(Cl)c1 [Compound 122]	101 to 1000 nM	< 100 nM
CN(CCN)Cc1c[nH]nc1-c1cccc(Cl)c1F [Compound 123]	101 to 1000 nM	< 100 nM
CN(CCN)Cc1c[nH]nc1-c1ccc(F)c(Cl)c1 [Compound 124]	101 to 1000 nM	< 100 nM
COc1ccc(-c2n[nH]cc2CN(C)CCN)cc1Cl [Compound 125]	101 to 1000 nM	< 100 nM
Cc1ccc(-c2n[nH]cc2CN(C)CCN)cc1Cl [Compound 126]	101 to 1000 nM	< 100 nM
COc1cc(Cl)cc(-c2n[nH]cc2CN(C)CCN)c1 [Compound 127]	101 to 1000 nM	< 100 nM
CN(CCN)Cc1cn(CC2CCOCC2)nc1-c1ccc(F)cc1 [Compound 128]	> 10000 nM	1010 to 3000 nM
Cc1c(F)cccc1-c1n[nH]cc1CN(C)CCN [Compound 129]	101 to 1000 nM	< 100 nM
COc1cccc(-c2n[nH]cc2CN(C)CCN)c1 [Compound 130]	101 to 1000 nM	< 100 nM
Cc1cccc(-c2n[nH]cc2CN(C)CCN)c1 [Compound 131]	101 to 1000 nM	< 100 nM
CN(CCN)Cc1c[nH]nc1-c1ccc(Cl)cc1F [Compound 132]	101 to 1000 nM	< 100 nM
Cc1cc(Cl)ccc1-c1n[nH]cc1CN(C)CCN [Compound 133]	101 to 1000 nM	< 100 nM
COc1ccc(-c2n[nH]cc2CN(C)CCN)cc1F [Compound 134]	101 to 1000 nM	< 100 nM
CN(CCN)Cc1c[nH]nc1-c1ccc(C(F)(F)F)cc1Cl [Compound 135]	1010 to 3000 nM	< 100 nM
CCNC(=O)c1ccc(-c2n[nH]cc2CN(C)CCN)cc1 [Compound 136]	101 to 1000 nM	< 100 nM
CN(CCN)Cc1c[nH]nc1-c1cc(Cl)cc(Cl)c1 [Compound 137]	101 to 1000 nM	< 100 nM
CN(CCN)Cc1n[nH]cc1-c1ccc(OC(F)F)cc1 [Compound 138]	101 to 1000 nM	< 100 nM
CN(CCN1CCCC1)Cc1c[nH]nc1-c1ccc(C#N)cc1 [Compound 139]	> 10000 nM	
CN(CCN)Cc1c[nH]nc1-c1ccccc1C#N [Compound 140]	3010 to 10000 nM	1010 to 3000 nM
